Consider three compounds from publication PMC10428208, “Phototoxicity of Tridentate Ru(II) Polypyridyl Complex with Expanded Bite Angles toward Mammalian Cells and Multicellular Tumor Spheroids” (Inorganic Chemistry, 2023).

Like-named read-outs stand apart in the source and are kept apart here. Marks after values point to notes of the source that are not given here.

In one series the test system is HL60 leukemia cells. The arrangement: method as in PMID 22553960. As to conditions: cited from earlier work.
A further series concerns A549 cell monolayers. The arrangement: method as in PMID 22553960. The conditions noted are these: cited from earlier work.
A further series relates to HeLa cells. As to conditions: irradiation dose of 5 J/cm^2; cited from earlier work. From the text:
It is important to highlight that a direct comparison between the other reported PIs is difficult to make because of the diversity of conditions used to determine PI values. Because PI is influenced by a range of factors, including the cell type extent of permeability of a given agent and the irradiation dose.[72] […] Based on control studies with untreated CHO, A549, and HPAC cell monolayers, we selecte ...

A further series concerns HPAC 2D cell monolayers. Format: cell-based, human. As for the experimental part: (§1) All cell monolayers were prepared as described above for the phototoxicity assay. A549 and CHO cells were treated at varying concentrations of the complexes and incubated for 30 min in the absence of light, HPAC were incubated for 2 h to allow uptake. A 470 nm blue light LED array was used to irradiate the cells in the wells at a total dose of 17 ± 1.64 J/cm^2 (2 h at 2.37 ± 0.23 mW/cm^2). A dark control plate was performed alongside all phototoxicity plates. Irradiation conditions were tested on untreated cells to confirm cells remained viable at this dose before any experiments were performed and each phototoxicity plate included untreated test wells for cell viability comparison. All viability assays were performed in triplicate.
(§2) The test solutions were then decanted, and the wells replaced with phenol red free media. The phototoxicity plate was irradiated using a 470 nm LED, corresponding to which is close to the absorbance maximum associated with the ^1MLCT of the complex, total irradiation dose 17 ± 1.64 J/cm^2 (constituting 2 h at 2.37 ± 0.23 mW/cm^2) at 37 °C, and the control plate was maintained under the same conditions in the dark. The cells were then incubated for a further 21.5 h at 37 °C with 5% CO2 to allow for cell recovery. An alamar blue assay was performed to assess cell viability.
The HPAC cells required a longer incubation period of 2 h prior to irradiation to account for slower uptake. […] In summary, Ru-bqp-ester is minimally toxic in the dark but highly phototoxic in all test cells when activated using a 470 nm LED. Furthermore, the peptide conjugates Ru-bqp-R8 and Ru-bqp-MPP show phototoxic potential in cancerous cell lines A549 and HPAC selected for analysis. The increased uptake of the MPP peptide conjugate into the mitochondria, as determined by our co-localization studies, could be linked to the higher phototoxicity of the complex in A549 and HPAC cells and also the increased dark toxicity in HPAC and CHO cell monolayers in comparison to the parent and R8 peptide conjugate.

Series [1] relates to A549 cells. The conditions noted are these: read-out: IC50, dark toxicity; A549, 24 h incubation in the dark, alamar blue added immediately, no recovery, N=3. As for the experimental part: (§3) The alamar blue assay (Invitrogen) was used to assess the viability of A549, CHO, and HPAC cell monolayers treated with the Ru(II) probes, Ru-bqp-ester, Ru-bqp-MPP, Ru-bqp-R8. CHO, A549, and 2D HPAC cells were seeded in a 96-well plate (Nunc, flat bottom cell culture treated) at 1 × 10^4 cells per well, i.e., in 100 μL media for 24 h at 37 °C with 5% CO2. Ru-bqp-ester, Ru-bqp-R8, and Ru-bqp-MPP were added for 24 h at 37 °C and 5% CO2 in the absence of light. The alamar blue (Resazurin) assay was performed to measure cell viability by replacing the test solution with 100 μL of a 10% v/v media/resazurin solution and incubating for 5 h at 37 °C in the absence of light. Absorbance was measured using a BMG Labtech ClarioStar (plus) plate reader at 570 and 600 nm (corrected for background subtraction). Cell viability is presented as a percentage (%) compared to untreated control wells.
(§4) The alamar blue (Resazurin) assay was used to assess cell viability of CHO, A549, and HPAC cell monolayers after 24 h incubation in the dark with the complexes and conjugates. In the presence of metabolically active cells, the alamar blue dye is reduced to resorufin and changes from navy blue to a pink color depending on the number of viable cells. Thus, this assay can be used as a simple direct indicator of cell viability. […]
(Resazurin is reduced to fluorescent resorufin, in cell work by metabolically active cells.)

For a further series, the system named is HPAC cell monolayers. Format: cell-based, human. The conditions noted are these: 24 h incubation in the dark, alamar blue added immediately, no recovery, N=3, read-out: IC50, dark toxicity. As for the experimental part:
as §3, §4

Series [2] has as its system CHO cells. Briefly: Phototoxicity with dark control plate, 470 nm LED, alamar blue. Format: cell-based, Chinese hamster. As to conditions: 30 min incubation, 470 nm LED 17 J/cm^2, alamar blue, triplicate, read-out: IC50 under irradiation. As for the experimental part:
as §1
The test solutions were then decanted, and the wells replaced with phenol red free media. The phototoxicity plate was irradiated using a 470 nm LED, corresponding to which is close to the absorbance maximum associated with the ^1MLCT of the complex, total irradiation dose 17 ± 1.64 J/cm^2 (constituting 2 h at 2.37 ± 0.23 mW/cm^2) at 37 °C, and the control plate was maintained under the same conditions in the dark. […]
Similar to the phototoxicity studies in A549 cells, an incubation time of 30 min was selected for CHO cells to allow uptake. […] Cell viability was determined relative to untreated control wells using an alamar blue assay. […]

Series [3] in a line: Photophysical measurements (luminescence lifetime, quantum yield). Format: physicochemical. How it is done: Absorbance measurements of the Ru(II) complexes at 20 μM were performed using a Jasco V670 spectrophotometer. Emission spectra were collected using a Varian Cary Eclipse fluorescence spectrophotometer and luminescent lifetime measurements were performed on a PicoQuant FluoTime 100 FLS TCSPC system using a 450 nm pulsed laser and an external pulse generator. Lifetime decay curves were analyzed using the PicoQuant Fluofit software with fitting criteria; 0.9 < X^2 < 1.1. For O2 sensitivity studies, the emission spectrum and luminescent lifetime of each complex (10 μM) were recorded under O2 saturation, and after N2 purge for 20 min. All measurements were performed in triplicate and reported as the mean ± SD.

A further series has as its system HPAC spheroids. Nature of the series: Uptake in spheroids, confocal imaging. As to conditions: 24 h incubation.
For series [4], the system named is A549 cells. How it is done: as §1
as §2, with “The phototoxicities of the Ru-bqp-ester, Ru-bqp-R8, and Ru-bqp-MPP were next compared across the three cell line monolayers. Two identical plates, a dark control and phototoxicity plate, were prepared and incubated with varying concentrations of Ru-bqp-ester, Ru-bqp-R8, and Ru-bqp-MPP for 30 min or 2 h depending on the cell line. The test” for “The test”
To overcome potential efflux of the complexes from the A549 cells, a shorter complex incubation time of 30 min was selected prior to irradiation.

Series [5] concerns HPAC multicellular spheroids (3D). Format: cell-based, human. The conditions noted are these: 24 h treatment, 23.5 h recovery, CellTiter-Glo 3D, average of three plates. As for the experimental part:
Spheroid viability was evaluated using a CellTiter-Glo 3D assay. Although the alamar blue assay is a robust and reliable option for 2D cell viability, the CellTiter-Glo 3D assay is specifically designed to penetrate deeper into 3D cell culture and thus offers better specificity for these studies. Cells were seeded in round-bottom 96 well plates at 2 × 10^4 cells per well and grown for 96 h. The cells were treated for 24 h and a media change performed. A 470 nm LED was used to irradiate the spheroids at 4.27 ± 0.41 J/cm^2 (30 min at 2.37 ± 0.23 mW/cm^2) and a dark control plate was performed simultaneously. Irradiation conditions were tested on untreated spheroids to confirm whether viability remained unaffected at this irradiation dosage before any experiments were performed. The spheroids were allowed to recover and the CellTiter-Glo 3D assay was performed to determine cell viability as per the manufacturer’s protocol. Percentage cell viability was determined relative to the untreated control spheroids.
The dark and phototoxicity of the parent and peptide conjugates were also assessed in HPAC spheroids. […] Cell viability was determined using the CellTiter-Glo 3D luminescence-based assay, and viability assays were performed in triplicate. […] As in the 2D alamar blue assay protocol, % viability is calculated relative to untreated control spheroids.
Background: ATP-based viability assays read luminescence as a measure of living cells.

Details of series [6]: method as in doi:10.3390/organoids1020012, PMID 35485712. The conditions noted are these: previously published, 298 K, deaerated MeOH/EtOH solution; printed in the MeCN row; cited from earlier work.
Series [7] relates to CHO cells. The series is classed as cell-based, Chinese hamster. As to conditions: 24 h incubation in the dark, alamar blue added immediately, no recovery, N=3, read-out: IC50, dark toxicity. How it is done:
as §3, §4

Method for HPAC spheroids: HPAC cells were seeded in U-bottom 96 well-plates pre-treated with 0.5% polyHEMA [poly(2-hydroxyethyl methacrylate), Sigma in 95% ethanol] at 2 × 10^4 cells per well. The plate was then centrifuged at 700 rpm at 37 °C using a BMG Labtech ClarioStar (plus) plate reader for 10 min. The cells were incubated for 96 h to allow spheroid formation before any dye was added for imaging studies. Ru-bqp-ester, Ru-bqp-MPP, and Ru-bqp-R8 were added to the spheroids at 30 and 100 μM in the 96 well plates and after 24 h incubation, the spheroids were carefully transferred to an 8-chamber slide (ibidi), with a single spheroid per chamber, and directly imaged using a Leica TCS DMi8 confocal microscope (40× oil immersion objective). Hoechst 33342 nuclear stain (1 μg/mL) was added to the spheroids for 45 min as a contrast agent and excited using a 405 nm laser with emission collected between 425 and 475 nm. The Ru(II) complexes were excited using a white light laser at 490 nm and emission collected between 580 and 730 nm. Spheroid images were acquired using z-scanning across the z-axis of the samples. On average, 40–50 images were acquired per z-scan and used to obtain 3D spheroid reconstructions using Leica Application Suite X (LAS X) software.
Confocal fluorescence imaging was performed to determine if the cellular uptake observed in 2D culture extends to 3D models. […]

On to `NCC(=O)CCC(=O)O` [ALA, aminolevulinic acid], for which the PI is reported as greater than 18 with HL60 leukemia cells and 4.2 in the series with A549 cell monolayers.

With Photofrin, the PI with HeLa cells is reported as greater than 10.

With [Ru(bqp)(bqpCOOEt)]^2+ [Ru-bqp-ester], the IC50 (as a rule, the concentration needed to halve the response being measured) with HPAC 2D cell monolayers (2 h incubation, 470 nm LED 17 J/cm^2, read-out: IC50 under irradiation, HPAC cells) was 0.77 ± 0.11 µM; with HPAC 2D cell monolayers (dark control plate, 2 h incubation then recovery in the dark, alamar blue, average of three plates, triplicate per plate, read-out: IC50 dark, HPAC 2D cell monolayers) it was 585 ± 6.28 µM; with A549 cells [1] it was greater than 100 µM; in the series with HPAC cell monolayers, greater than 100 µM; in the series with CHO cells [2], less than 5 µM; with A549 cells [4] (read-out: IC50 under irradiation, A549, 30 min incubation, 470 nm LED 17 ± 1.64 J/cm^2 (2 h), 21.5 h recovery, alamar blue) it was less than 5 µM. Besides, the 50% inhibitory concentration (IC50) was greater than 100 µM in series [5] (470 nm LED 4.27 ± 0.41 J/cm^2 (30 min), read-out: IC50 light, HPAC multicellular spheroids (3D)); greater than 100 µM in series [5] (dark control plate, read-out: IC50 dark, HPAC multicellular spheroids (3D)); greater than 100 µM in the series on CHO cells [7]. For the same compound, the “PI (phototoxic index), HPAC 2D cell monolayers” value in the series with HPAC 2D cell monolayers (ratio of dark to light IC50 values, 17 ± 1.64 J/cm^2 at 470 nm) stood at 760. Also, the τlum aerated was 384 ± 1 ns in series [3] (MeCN, mean ± SD of triplicate) and 782 ± 18 ns in series [3] (PBS (pH 7.4), 450 nm pulsed laser, TCSPC, mean ± SD of triplicate). Also, the τlum deaerated was 1320 ± 20 ns in series [3] (PBS (pH 7.4), deaerated (N2 purge 20 min), mean ± SD of triplicate) and 4300 ^a ns in series [6]. Also, the “emission lifetime on deaeration” value in series [3] (PBS buffer (pH 7.4), deaerated) is “over 1.3 μs”. The “uptake in HPAC spheroids” value is listed as “some uptake” in the series on HPAC spheroids (30 μM) and “complete internalization” in the series with HPAC spheroids (100 μM). In the series on A549 cells [4] (dark control plate, 30 min incubation, up to 100 μM, not graphed), the “cell viability, A549 dark control” value is greater than 80%. Besides, the “A549 cells dead following photoirradiation” value in the series with A549 cells [4] (dose of <5 μM, 30 min incubation, 470 nm LED 17 J/cm^2) is “More than 70%”. Moreover, the emission quantum yield Φ in [6] was 4%.
